In patent US11707447B1:
Entries after “also recorded” stand apart in the source; their conditions may differ.

Assays:
[1] = in vitro; assay type: in vitro ADME, human
Source text: (§1) A fundamental evaluation in drug development is the assessment of absorption, distribution, metabolism, excretion, and pharmacokinetics (ADME/PK) (Eddershaw et al., 2000, Drug Discovery Today 5(9): 409-414). […] Drug stability upon exposure to human liver microsomes and liver S9 cellular fractions is a common in vitro assay to approximate in vivo, liver-based drug metabolism (Richardson et al., 2016 Drug Metabolism Letters 10:83-90). First-pass metabolism is also often approximated in vitro using intestinal microsome and cellular S9 fractions (Hatley et al., 2017, Biopharmaceuticals & Drug Disposition, 38(2):155-160). Further, it is well known that human serum, and particularly circulating serum esterases can contribute to systemic drug metabolism (Williams, F M 1987, Pharmacology and Therapeutics, 34:99-109). Many pharmacological agents are classified as prodrugs, as they undergo metabolic transformation in vivo upon administration to release the active drug compound into the systemic compartment (Zawilska J B, et al. 2013, Pharmacological Reports, 65:1-14). Psilocybin, a serotonergic psychedelic agent, is well known prodrug that is metabolized into the psychoactive product, psilocin (Dinis-Oliveira, R J 2017, Drug Metabolism Reviews, 49(1):84-91). To evaluate the capacity of test molecules to similarly serve as prodrugs of psilocin, time-dependent, metabolic stability assays using human AB serum, human intestinal microsomes (HIM), human intestinal S9 fractions (HIS9), human liver microsomes (HLM), human liver S9 fractions (HLS9), human alkaline phosphatase, and porcine esterase were performed. […] Liquid chromatography coupled mass spectrometry (LC-MS) was employed to track the conversion of the test molecules into psilocin. All intestinal and liver fractions and NADPH RapidStart reagent was purchased from Sekisui/XenoTech. Human AB serum was purchased from Sigma. For intestine and liver metabolism assays, 2.5 μM candidate compounds were incubated in 400 μg/ml of each cellular fraction (HLM, HLS9, HIM, or HIS9) in 50 mM potassium phosphate buffer (pH 7.4) containing 3 mM MgCl2 and 1 mM EDTA supplemented with NADPH RapidStart at 37° C. Samples were taken at the start of the assay, and at every 20 minutes for 2 hours. Time-point samples were precipitated with 1:1 volume of acetonitrile to quench the reaction before centrifugation at 4000×g for 20 minutes. Supernatants were analyzed for the presence of candidate prodrugs (parent molecule) and psilocin (the predicted metabolite) using Orbitrap LC-MS (Thermo Scientific) using previously described methods (Menéndez-Perdomo et al., 2021, J. Mass Spectrom., 56: e4683). The serum assays were carried out in 10% human AB serum in 50 mM potassium phosphate buffer (pH 7.4) containing 3 mM MgCl2 and 1 mM EDTA. Bovine alkaline phosphatase assays were carried out using one unit of purified enzyme in 50 mM potassium phosphate buffer (pH 7.4) containing 3 mM MgCl2 and 1 mM EDTA. Porcine esterase assays were carried out using one unit of purified enzyme in 50 mM potassium phosphate buffer (pH 7.4) containing 3 mM MgCl2 and 1 mM EDTA. Assay concentrations (μM) of both parent ‘prodrug’ molecule and psilocin metabolite, as quantified through LC-MS using routine standard curve procedures, were plotted as functions of assay time (minutes). The metabolism rate (T1/2) was determined from the metabolism curve plot using the one phase decay feature of GraphPad PRISM software (Version 9.2.0). The quantity of parent prodrug at time zero was set as 100%.
Positive controls were first tested to ensure that assays were functioning properly.

[2] = In vitro metabolic stability / psilocin release, human AB serum; assay type: in vitro ADME; details: AB serum
Source text: as §1, with “For intestine and liver metabolism assays, 2.5 μM candidate compounds were incubated in 400 μg/ml of each cellular fraction (HLM, HLS9, HIM, or HIS9) in 50 mM potassium phosphate buffer (pH 7.4) containing 3 mM MgCl2 and 1 mM EDTA supplemented with NADPH RapidStart at 37° C. Samples were taken at the start of the assay, and at every 20 minutes for 2 hours. Time-point samples were precipitated with 1:1 volume of acetonitrile to quench the reaction before centrifugation at 4000×g for 20 minutes.” left out, “The serum assays were carried out in 10% human AB serum in 50 mM potassium phosphate buffer (pH 7.4) containing 3 mM MgCl2 and 1 mM EDTA. Bovine alkaline phosphatase assays were carried out using one unit of purified enzyme in 50 mM potassium phosphate buffer (pH 7.4) containing 3 mM MgCl2 and 1 mM EDTA. Porcine esterase assays were carried out using one unit of purified enzyme in 50 mM potassium phosphate buffer (pH 7.4) containing 3 mM MgCl2 and 1 mM EDTA.” left out, “100%. […]” for “100%.”

[3] = Stability in enzyme-free control buffer; assay type: in vitro ADME; details: enzyme-free buffer pH 7.4
Source text: A fundamental evaluation in drug development is the assessment of absorption, distribution, metabolism, excretion, and pharmacokinetics (ADME/PK) (Eddershaw et al., 2000, Drug Discovery Today 5(9): 409-414). […] Drug stability upon exposure to human liver microsomes and liver S9 cellular fractions is a common in vitro assay to approximate in vivo, liver-based drug metabolism (Richardson et al., 2016 Drug Metabolism Letters 10:83-90). First-pass metabolism is also often approximated in vitro using intestinal microsome and cellular S9 fractions (Hatley et al., 2017, Biopharmaceuticals & Drug Disposition, 38(2):155-160). […] Supernatants were analyzed for the presence of candidate prodrugs (parent molecule) and psilocin (the predicted metabolite) using Orbitrap LC-MS (Thermo Scientific) using previously described methods (Menéndez-Perdomo et al., 2021, J. Mass Spectrom., 56: e4683). […] Assay concentrations (μM) of both parent ‘prodrug’ molecule and psilocin metabolite, as quantified through LC-MS using routine standard curve procedures, were plotted as functions of assay time (minutes). The metabolism rate (T1/2) was determined from the metabolism curve plot using the one phase decay feature of GraphPad PRISM software (Version 9.2.0). The quantity of parent prodrug at time zero was set as 100%.

[4] = Mouse pharmacokinetic (PK) evaluation of drug metabolism to psilocin; details: for Plasma concentration of psilocin: 24 h
[5] = target: T1, 5-HT1A receptor (Homo sapiens, UniProt P08908); test: cAMP-Glo assay in +5-HT1A / -5-HT1A CHO-K1 cells; assay type: cell-based; details: forskolin-stimulated +5-HT1A vs -5-HT1A cells, increasing ligand
T1 construct: host or cells: CHO-K1 (co-expressing Ga15)
T1 sequence (P08908 1-422): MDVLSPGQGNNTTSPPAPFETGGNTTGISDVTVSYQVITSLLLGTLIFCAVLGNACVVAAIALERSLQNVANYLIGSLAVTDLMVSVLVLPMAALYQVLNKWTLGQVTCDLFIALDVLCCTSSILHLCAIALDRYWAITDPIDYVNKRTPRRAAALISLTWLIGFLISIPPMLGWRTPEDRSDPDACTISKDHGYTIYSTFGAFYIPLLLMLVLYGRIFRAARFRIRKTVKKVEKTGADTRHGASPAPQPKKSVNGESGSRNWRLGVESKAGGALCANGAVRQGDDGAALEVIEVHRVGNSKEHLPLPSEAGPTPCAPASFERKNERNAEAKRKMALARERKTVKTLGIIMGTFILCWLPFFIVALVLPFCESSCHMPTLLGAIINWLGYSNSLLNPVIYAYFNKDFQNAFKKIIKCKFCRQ

[6] = target: 5-HT2A receptor (Homo sapiens, UniProt P28223); test: [3H]ketanserin competition radioligand binding assay (SPA); details: control ligands
Chain of 5-HT2A receptor (P28223 whole entry): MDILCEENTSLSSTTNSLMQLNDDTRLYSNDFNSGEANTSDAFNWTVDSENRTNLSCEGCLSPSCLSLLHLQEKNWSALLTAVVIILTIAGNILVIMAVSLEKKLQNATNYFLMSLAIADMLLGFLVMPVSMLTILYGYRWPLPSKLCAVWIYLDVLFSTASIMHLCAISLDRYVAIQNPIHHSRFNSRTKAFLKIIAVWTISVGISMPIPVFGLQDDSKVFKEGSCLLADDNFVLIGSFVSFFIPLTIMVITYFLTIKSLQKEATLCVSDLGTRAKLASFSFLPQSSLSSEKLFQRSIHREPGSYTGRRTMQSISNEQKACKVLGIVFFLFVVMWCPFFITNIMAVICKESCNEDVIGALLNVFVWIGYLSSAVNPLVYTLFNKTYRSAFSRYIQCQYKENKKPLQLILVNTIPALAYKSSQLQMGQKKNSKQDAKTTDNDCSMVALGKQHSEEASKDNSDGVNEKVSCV

CN(C)CCc1c[nH]c2cccc(OP(=O)(O)O)c12 [psilocybin, reference compound]
metabolic stability / conversion to psilocin (in words) ([1]; HLM): stable in liver fractions with no conversion to psilocin | metabolic stability / conversion to psilocin (in words) ([1]; HLS9): stable in liver fractions with no conversion to psilocin | metabolic stability / conversion to psilocin (in words) [2]: stable in serum with no conversion to psilocin | stability in assay buffer (in words) [3]: stability of psilocybin was confirmed in assay buffer | Plasma concentration of administered (parent) compound ([4]; 1 mg/kg i.v., 0.5 h, individual mice): No Peak | Plasma concentration of administered (parent) compound ([4]; 1 mg/kg i.v., 1 h, individual mice): No Peak | Plasma concentration of administered (parent) compound ([4]; 1 mg/kg i.v., 2 h, individual mice): No Peak | Plasma concentration of administered (parent) compound ([4]; 1 mg/kg i.v., 4 h, individual mice): No Peak | Plasma concentration of administered (parent) compound ([4]; 1 mg/kg i.v., 6 h, individual mice): No Peak | Plasma concentration of administered (parent) compound ([4]; 1 mg/kg i.v., 8 h, individual mice): No Peak | tmax (parent compound in plasma) ([4]; 1 mg/kg i.v., individual mice): 5 min | tmax (parent compound in plasma) ([4]; 1 mg/kg i.v., mean ± SD): 5 ± 0 min | Plasma concentration of psilocin ([4]; 1.56 mg/kg oral of administered compound, individual mice): BLQ | Plasma concentration of psilocin ([4]; 3 mg/kg oral of administered compound, individual mice): BLQ | concentration at 5 min ([4]; male, C57Bl/6, mouse, plasma, intravenous, 1 mg/kg, Plasma concentration of administered (parent) compound, 1 mg/kg i.v., 5 min, mean ± SD): 144 ± 167 ng/mL | concentration at 0.25 h ([4]; male, C57Bl/6, mouse, plasma, intravenous, 1 mg/kg, Plasma concentration of administered (parent) compound, 1 mg/kg i.v., 0.25 h, mean ± SD): 13.2 ± 12.5 ng/mL | concentration at 0.5 h ([4]; male, C57Bl/6, mouse, plasma, intravenous, 1 mg/kg, Plasma concentration of administered (parent) compound, 1 mg/kg i.v., 0.5 h, mean ± SD): 4.28 ng/mL | concentration at 1 h ([4]; male, C57Bl/6, mouse, plasma, intravenous, 1 mg/kg, Plasma concentration of administered (parent) compound, 1 mg/kg i.v., 1 h, individual mice): 1.21 ng/mL | concentration at 1 h ([4]; male, C57Bl/6, mouse, plasma, intravenous, 1 mg/kg, Plasma concentration of administered (parent) compound, 1 mg/kg i.v., 1 h, mean): 1.21 ng/mL | concentration at 8 h ([4]; male, C57Bl/6, mouse, plasma, intravenous, 1 mg/kg, Plasma concentration of administered (parent) compound, 1 mg/kg i.v., 8 h, individual mice): 2.54 ng/mL | Cmax ([4]; male, C57Bl/6, mouse, plasma, iv, 1 mg/kg, Cmax (parent compound in plasma), 1 mg/kg i.v., mean ± SD): 144 ± 167 ng/mL | detectability of administered compound in plasma (in words) ([4]; oral vs i.v. dosing): only detectable in i.v. administered animals; also recorded: not detectable in orally administered animals at any dose

NCCc1c[nH]c2ccc(O)cc12 [serotonin]
cAMP level / 5-HT1A receptor modulation (in words) [5]: reduction in cAMP levels

N[C@@H](Cc1c[nH]c2ccccc12)C(=O)O [tryptophan]
cAMP level / 5-HT1A receptor modulation (in words) [5]: no reduction in cellular cAMP levels | 5-HT2A competition binding (in words) [6]: negative control (no binding)
